Results as given in ChEMBL document CHEMBL2321685, “Lead optimization of isocytosine-derived xanthine oxidase inhibitors” (Bioorg Med Chem Lett, 2013).
Calls of active or inactive are those of the source. The rule behind the calls is not given here.

How the values were obtained:
[1] = target: Xanthine dehydrogenase/oxidase (Bos taurus, UniProt P80457)
Description: Inhibition of bovine xanthine oxidase-mediated uric acid production after 30 mins by spectrophotometric analysis

[2] = Oral bioavailability in Sprague-Dawley rat at 10 mg/kg; assay type: ADME, organism-based; details: in vivo
[3] = (§1) Metabolic stability in rat liver microsomes assessed as compound remaining after 60 mins; assay type: ADME, Microsome; details: liver microsomes, read-out: Stability
[4] = (§2) Metabolic stability in rat plasma assessed as compound remaining after 60 mins; assay type: ADME, cell-free; details: read-out: Stability
[5] = Initial plasma concentration in Sprague-Dawley rat at 2 mg/kg, iv; assay type: ADME, organism-based; design: dose 2 mg/kg, route intravenous
[6] = (§3) Metabolic stability in rat liver S9 fraction assessed as compound remaining after 60 mins; assay type: ADME, subcellular; details: liver S9 fraction, read-out: Stability
Rattus norvegicus [7] = test: Tmax in Sprague-Dawley rat assessed as 2-(4-(2-amino-6-hydroxypyrimidin-4-yl)-2-cyanophenoxy)-2-methylpropanoic acid level at 10 mg/kg, po; assay type: ADME, organism-based; design: dose 10 mg/kg, route oral; details: in vivo
[8] = AUClast in Sprague-Dawley rat at 10 mg/kg, po; assay type: ADME, organism-based; design: time 0 - last, dose 10 mg/kg, route oral; details: plasma
Rattus norvegicus [9] = test: Cmax in Sprague-Dawley rat assessed as 2-(4-(2-amino-6-hydroxypyrimidin-4-yl)-2-cyanophenoxy)-2-methylpropanoic acid level at 10 mg/kg, po; assay type: ADME, organism-based; design: dose 10 mg/kg, route oral; details: in vivo
Rattus norvegicus [10] = test: AUClast in Sprague-Dawley rat assessed as 2-(4-(2-amino-6-hydroxypyrimidin-4-yl)-2-cyanophenoxy)-2-methylpropanoic acid level at 10 mg/kg, po; assay type: ADME, organism-based, Plasma; design: time 0 - last, dose 10 mg/kg, route oral; details: in vivo
Rattus norvegicus [11] = test: Elimination half life in Sprague-Dawley rat assessed as 2-(4-(2-amino-6-hydroxypyrimidin-4-yl)-2-cyanophenoxy)-2-methylpropanoic acid level at 10 mg/kg, po; assay type: ADME, organism-based; design: dose 10 mg/kg, route oral; details: in vivo
[12] = (§4) Cmax in Sprague-Dawley rat at 10 mg/kg, po; assay type: ADME, organism-based; design: dose 10 mg/kg, route oral; details: Sprague-Dawley, in vivo
[13] = Elimination half life in Sprague-Dawley rat at 10 mg/kg, po; assay type: ADME, organism-based; design: dose 10 mg/kg, route oral; details: in vivo, read-out: beta t1/2 (converted)
[14] = Tmax in Sprague-Dawley rat at 10 mg/kg, po; assay type: ADME, organism-based; design: dose 10 mg/kg, route oral; details: in vivo
Rattus norvegicus [15] = test: Antihyperuricemic activity in po dosed rat assessed as reduction in potassium oxonate-induced serum uric acid level administered at 1 hr prior to potassium oxonate-challenge measured up to 5 hrs; assay type: functional
Rattus norvegicus [16] = test: Antihyperuricemic activity in rat assessed as reduction in potassium oxonate-induced serum uric acid level at 50 mg/kg, po administered at 1 hr prior to potassium oxonate-challenge measured up to 5 hrs relative to control; assay type: functional, organism-based; design: dose 50 mg/kg
Liver microsomes = test: as §1; assay type: ADME, Microsome; details: microsomes, 1 h
Plasma = test: as §2; assay type: ADME, cell-free; details: 1 h
Liver = test: as §3; assay type: ADME, subcellular; details: s9, 1 h
[17] = Clearance in Sprague-Dawley rat at 2 mg/kg, iv; assay type: ADME, organism-based; design: dose 2 mg/kg, route intravenous; details: in vivo
[18] = Tmax in Sprague-Dawley rat at 2 mg/kg, iv; assay type: ADME, organism-based; design: dose 2 mg/kg, route intravenous; details: in vivo
[19] = Cmax in Sprague-Dawley rat at 2 mg/kg, iv; assay type: ADME, organism-based; design: dose 2 mg/kg, route intravenous; details: in vivo
Rattus norvegicus [20] = test: Antihyperuricemic activity in rat assessed as reduction in potassium oxonate-induced serum uric acid level at 30 mg/kg, po administered at 1 hr prior to potassium oxonate-challenge measured up to 5 hrs relative to allopurinol; assay type: functional; design: scale not given: the % may be the effect or the level left
[21] = AUClast in Sprague-Dawley rat at 2 mg/kg, iv; assay type: ADME, organism-based; design: time 0 - last, dose 2 mg/kg, route intravenous; details: plasma
[22] = Volume of distribution in Sprague-Dawley rat at 2 mg/kg, iv; assay type: ADME, organism-based; design: dose 2 mg/kg, route intravenous; details: in vivo
Rattus norvegicus [23] = test: Antihyperuricemic activity in rat assessed as reduction in potassium oxonate-induced serum uric acid level at 10 mg/kg, po administered at 1 hr prior to potassium oxonate-challenge measured up to 5 hrs relative to allopurinol; assay type: functional; design: scale not given: the % may be the effect or the level left
[24] = Elimination half life in Sprague-Dawley rat at 2 mg/kg, iv; assay type: ADME, organism-based; design: dose 2 mg/kg, route intravenous; details: in vivo, read-out: beta t1/2 (converted)
Rattus norvegicus [25] = test: AUClast in Sprague-Dawley rat assessed as Methyl 4-((4-(2-amino-6-hydroxypyrimidin-4-yl)-2-cyanophenoxy)methyl)cyclohexanecarboxylate level at 10 mg/kg, po; assay type: ADME, organism-based, Plasma; design: time 0 - last, dose 10 mg/kg, route oral; details: in vivo
Rattus norvegicus [26] = test: Elimination half life in Sprague-Dawley rat assessed as Methyl 4-((4-(2-amino-6-hydroxypyrimidin-4-yl)-2-cyanophenoxy)methyl)cyclohexanecarboxylate level at 10 mg/kg, po; assay type: ADME, organism-based; design: dose 10 mg/kg, route oral; details: in vivo
Rattus norvegicus [27] = test: as §4; assay type: ADME, organism-based; design: dose 10 mg/kg, route oral; details: in vivo, BLD = below limit of detection
Rattus norvegicus [28] = test: Cmax in Sprague-Dawley rat assessed as Methyl 4-((4-(2-amino-6-hydroxypyrimidin-4-yl)-2-cyanophenoxy)methyl)cyclohexanecarboxylate level at 10 mg/kg, po; assay type: ADME, organism-based; design: dose 10 mg/kg, route oral; details: in vivo
Rattus norvegicus [29] = test: Tmax in Sprague-Dawley rat assessed as Methyl 4-((4-(2-amino-6-hydroxypyrimidin-4-yl)-2-cyanophenoxy)methyl)cyclohexanecarboxylate level at 10 mg/kg, po; assay type: ADME, organism-based; design: dose 10 mg/kg, route oral; details: in vivo

Chain of Xanthine dehydrogenase/oxidase (P80457 whole entry): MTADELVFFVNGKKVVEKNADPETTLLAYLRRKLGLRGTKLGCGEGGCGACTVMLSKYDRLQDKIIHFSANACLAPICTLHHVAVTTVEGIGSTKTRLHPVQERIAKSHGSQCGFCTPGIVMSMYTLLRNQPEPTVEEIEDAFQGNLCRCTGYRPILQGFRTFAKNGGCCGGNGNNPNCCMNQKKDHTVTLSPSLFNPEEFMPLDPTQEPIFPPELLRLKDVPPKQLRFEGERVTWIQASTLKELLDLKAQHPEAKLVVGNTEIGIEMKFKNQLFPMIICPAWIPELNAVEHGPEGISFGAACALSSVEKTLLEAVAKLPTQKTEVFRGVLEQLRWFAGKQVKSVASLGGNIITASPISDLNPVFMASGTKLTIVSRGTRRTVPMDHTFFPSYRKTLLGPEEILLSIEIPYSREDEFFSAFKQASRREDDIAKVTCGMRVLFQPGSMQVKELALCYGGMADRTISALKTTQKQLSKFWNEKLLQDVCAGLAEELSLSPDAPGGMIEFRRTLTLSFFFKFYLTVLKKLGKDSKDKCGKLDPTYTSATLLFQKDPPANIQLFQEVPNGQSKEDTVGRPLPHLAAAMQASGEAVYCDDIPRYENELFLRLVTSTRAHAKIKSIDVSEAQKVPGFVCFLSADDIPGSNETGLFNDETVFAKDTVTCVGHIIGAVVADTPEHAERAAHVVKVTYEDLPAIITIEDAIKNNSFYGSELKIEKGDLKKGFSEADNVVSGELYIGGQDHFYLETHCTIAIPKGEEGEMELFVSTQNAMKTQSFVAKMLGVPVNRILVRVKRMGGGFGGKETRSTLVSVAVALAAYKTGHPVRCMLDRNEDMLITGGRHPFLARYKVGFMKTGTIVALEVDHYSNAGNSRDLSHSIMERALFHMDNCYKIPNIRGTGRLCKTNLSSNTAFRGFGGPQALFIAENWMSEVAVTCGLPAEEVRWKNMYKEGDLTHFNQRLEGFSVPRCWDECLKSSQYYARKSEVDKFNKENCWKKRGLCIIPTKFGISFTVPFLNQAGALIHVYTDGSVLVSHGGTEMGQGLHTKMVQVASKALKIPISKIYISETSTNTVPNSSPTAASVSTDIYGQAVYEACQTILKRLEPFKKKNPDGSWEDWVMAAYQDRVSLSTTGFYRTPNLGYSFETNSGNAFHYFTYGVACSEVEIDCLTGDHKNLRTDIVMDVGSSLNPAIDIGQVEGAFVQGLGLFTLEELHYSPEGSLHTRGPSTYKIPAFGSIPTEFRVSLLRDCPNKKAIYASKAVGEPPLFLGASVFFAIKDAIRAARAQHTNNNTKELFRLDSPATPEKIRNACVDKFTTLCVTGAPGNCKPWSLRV

## N#Cc1cc(-c2cc(=O)[nH]c(N)n2)ccc1OCc1ccc(F)cc1C(F)(F)F
[1]
  IC50: 0.011 µM

## N#Cc1cc(-c2ccnc(N)n2)ccc1OCc1ccc(F)cc1C(F)(F)F
[1]
  IC50: 0.08 µM

## N#Cc1cc(-c2ccnc(N)n2)ccc1OCc1ccc(F)cc1
[1]
  IC50: 0.15 µM

## CC(C)COc1ccc(-c2cc(=O)[nH]c(N)n2)cc1C#N
[2]
  bioavailability: 8.6%
[3]
  remaining at 1 h: 91.5%
[4]
  remaining at 1 h: 96%
[5]
  C0: 1.36 µg/mL
[6]
  remaining at 1 h: 65.6%

## COC(=O)C(C)(C)COc1ccc(-c2cc(=O)[nH]c(N)n2)cc1C#N
Rattus norvegicus [7]
  Tmax: 4 h
[3]
  remaining at 1 h: 95.9%
[1]
  IC50: 0.015 µM
[8]
  AUC(0-t): 0.0448 µg·h/mL
[4]
  remaining at 1 h: 30.2%
Rattus norvegicus [9]
  Cmax: 8.46 µM
Rattus norvegicus [10]
  AUClast: 22.69983 µg·h/mL
[6]
  remaining at 1 h: 93.6%
Rattus norvegicus [11]
  beta t1/2: 11.6 h
[12]
  Cmax: 0.04 µM
[13]
  half-life: 2.04 h
[14]
  Tmax: 0.75 h

## N#Cc1cc(-c2cc(=O)[nH]c(N)n2)ccc1OCc1ccccc1
[1]
  IC50: 0.017 µM

## N#Cc1cc(-c2ccnc(N)n2)ccc1OCc1ccccc1C(F)(F)F
[1]
  IC50: 0.06 µM

## CC(C)(COc1ccc(-c2cc(O)nc(N)n2)cc1C#N)C(=O)O
[3]
  remaining at 1 h: 90.2%
[1]
  IC50: 0.005 µM
[8]
  AUC(0-t): 19.5 µg·h/mL
[4]
  remaining at 1 h: 33.9%
[6]
  remaining at 1 h: 98.9%
[12]
  Cmax: 6.6 µM
[13]
  half-life: 4 h

## N#Cc1cc(-c2cc(O)nc(N)n2)ccc1OCc1ccccc1C(F)(F)F
[1]
  IC50: 0.009 µM

## N#Cc1cc(-c2cc(=O)[nH]c(N)n2)ccc1OCC1CCC1
[1]
  IC50: 0.018 µM

## COc1ccc(-c2cc(O)nc(N)n2)cc1C#N
[1]
  IC50: 0.16 µM

## CC(C)(C)c1ccc(COc2ccc(-c3cc(=O)[nH]c(N)n3)cc2C#N)cc1
[1]
  IC50: 0.019 µM

## COC(=O)c1ccc(COc2ccc(-c3cc(O)nc(N)n3)cc2C#N)cc1
[1]
  IC50: 0.009 µM

## COC(=O)C1CCC(COc2ccc(-c3ccnc(N)n3)cc2C#N)CC1 (centres undefined)
[3]
  remaining at 1 h: 0%
[1]
  IC50: 0.01 µM
[4]
  remaining at 1 h: 28%
[6]
  remaining at 1 h: 11%
Rattus norvegicus [15]
  Activity: Active

## Cc1nc(O)cc(-c2ccc(OCC(C)C)c(C#N)c2)n1
[1]
  IC50: > 30 µM

## CC(C)COc1ccc(-c2cc(=O)[nH]cn2)cc1C#N
[3]
  remaining at 1 h: 49.6%
[1]
  IC50: 0.06 µM
[8]
  AUC(0-t): 0.416 µg·h/mL
[4]
  remaining at 1 h: 90.5%
[6]
  remaining at 1 h: 13.5%
[12]
  Cmax: 1.15 µM
[13]
  half-life: 9.88 h
[14]
  Tmax: 0.25 h

## N#Cc1cc(-c2ccnc(N)n2)ccc1OCC1CCC1
[1]
  IC50: 0.4 µM

## N#Cc1cc(-c2cc(O)nc(N)n2)ccc1OCC1CCCCC1
[3]
  remaining at 1 h: 97.3%
[1]
  IC50: 0.01 µM
[8]
  AUC(0-t): 0.109 µg·h/mL
[4]
  remaining at 1 h: 94%
[6]
  remaining at 1 h: 86.8%
[12]
  Cmax: 0.04 µM
[13]
  half-life: 18 h
[14]
  Tmax: 1 h

## N#Cc1cc(-c2cc(=O)[nH]c(N)n2)ccc1OCc1ccc(C(=O)O)cc1
[1]
  IC50: 0.005 µM

## CC(C)COc1ccc(-c2cc(O)ncn2)cc1C#N
Rattus norvegicus [16]
  Activity: Active

## CCC(CC)COc1ccc(-c2cc(=O)[nH]c(N)n2)cc1C#N
[1]
  IC50: 0.01 µM

## N#Cc1cc(-c2ccnc(N)n2)ccc1OCC1CCC(C(=O)O)CC1 (centres undefined)
Liver microsomes
  Stability: Stable
[1]
  IC50: 0.01 µM
Plasma
  Stability: Stable
Liver
  Stability: Stable
Rattus norvegicus [15]
  Activity: Active

## N#Cc1cc(-c2ccnc(N)n2)ccc1OCC1CCCCC1
[1]
  IC50: 0.05 µM

## COC(=O)C(C)(C)COc1ccc(-c2cc(O)nc(N)n2)cc1C#N
Rattus norvegicus [16]
  Activity: Active

## CC(C)C(C)Oc1ccc(-c2cc(O)nc(N)n2)cc1C#N (centres undefined)
[1]
  IC50: 0.013 µM

## CC(C)COc1ccc(-c2cc(C(N)=O)nc(N)n2)cc1C#N
[1]
  IC50: 3.9 µM

## CC(C)(C)COc1ccc(-c2cc(=O)[nH]c(N)n2)cc1C#N
[1]
  IC50: 0.004 µM
[8]
  AUC(0-t): 0.297 µg·h/mL
[4]
  remaining at 1 h: 99.7%
[12]
  Cmax: 0.16 µM
[13]
  half-life: 10.7 h
[14]
  Tmax: 0.5 h

## N#Cc1cc(-c2cc(O)nc(N)n2)ccc1OCc1ccc(F)cc1
[1]
  IC50: 0.007 µM

## CC(C)COc1ccc(-c2cc(C(=O)O)nc(N)n2)cc1C#N
[1]
  IC50: 0.4 µM

## N#Cc1cc(-c2cc(=O)[nH]c(N)n2)ccc1OCC1CCC(C(=O)O)CC1 (centres undefined)
[3]
  remaining at 1 h: 90.6%
[1]
  IC50: 0.009 µM
[8]
  AUC(0-t): 0.119 µg·h/mL
[4]
  remaining at 1 h: 106%
[6]
  remaining at 1 h: 101%
[12]
  Cmax: 0.05 µM
[14]
  Tmax: 4 h

## CC(C)COc1ccc(-c2ccnc(N)n2)cc1C#N
[2]
  bioavailability: 13.4%
[17]
  clearance: 0.64 L/h/kg
[18]
  Tmax: 1.8 min
[19]
  Cmax: 9.94 µM
[3]
  remaining at 1 h: 21.2%
[1]
  IC50: 0.08 µM
Rattus norvegicus [20]
  Activity: 70%
[8]
  AUC(0-t): 2 µg·h/mL
[4]
  remaining at 1 h: 88.4%
[5]
  C0: 3.72 µg/mL
[6]
  remaining at 1 h: 71.3%
Rattus norvegicus [15]
  Activity: Dose-dependent effect
  ED50: 10 mg/kg
[21]
  AUC(0-t): 2.99 µg·h/mL
[12]
  Cmax: 4.19 µM
[22]
  Vd: 5.5 L/kg
[13]
  half-life: 1.35 h
Rattus norvegicus [23]
  Activity: 49%
[24]
  half-life: 5.96 h
[14]
  Tmax: 0.75 h

## COC(=O)C1CCC(COc2ccc(-c3cc(O)nc(N)n3)cc2C#N)CC1 (centres undefined)
Rattus norvegicus [16]
  Activity: Active
[3]
  remaining at 1 h: 0%
[1]
  IC50: 0.019 µM
[4]
  remaining at 1 h: 0%
Rattus norvegicus [25]
  AUClast: 0.79524 µg·h/mL
[6]
  remaining at 1 h: 0%
Rattus norvegicus [26]
  beta t1/2: 3.9 h
Rattus norvegicus [27]
  Cmax: BLD
Rattus norvegicus [28]
  Cmax: 0.34 µM
Rattus norvegicus [29]
  Tmax: 2 h
